Measurements: patent publication US10138226B2, “Benzimidazol-2-amines as MIDH1 inhibitors” (Bayer Pharma Aktiengesellschaft, priority 2014, dated 2018)

Tests used:
IDH1 R132H enzyme = IDH1 R132H enzyme (Homo sapiens (Human), UniProt O75874, R132H); test: Mutant IDH1 R132H biochemical assay; details: NADPH consumption, luminescent readout, 250 μM α-KG, 1 μM NADPH, 32° C., 30 minutes, test range 0.002-10 μM; further: 1.5 nM enzyme
Description: mIDH1 catalyzes the NADPH-dependent reduction of alpha-ketoglutarate (α-KG) to (2R)-2-hydroxyglutarate (2-HG). NADPH consumption was measured by luminescent readout.
The biochemical reactions were performed at 32° C. in 384-well plates using a reaction volume of 41 μl and the following assay buffer conditions: 50 mM Tris pH 7.5, 100 mM NaCl, 20 mM MgCl2, 0.05% BSA, 0.01% Brij, 1 μM NADPH, and 250 μM α-KG. […] Test compounds were used in a concentration range between 0.002 and 10 μM. The final DMSO concentration was 2.4%.
The reaction was incubated for 30 minutes, then 40 μl of detection mix (0.75 μg/ml Luciferase, 0.02 U/ml Oxidoreductase, 4 μg/ml FMN, 2 μl/ml Decanal/Ethanol, 50 mM Tris pH 7.5, 0.5% Glycerin, 0.01% Tween-20, 0.05% BSA) was added. Luminescence was measured on a luminescent reader (10 seconds measuring time, 1 second integration period, 30% sensitivity). The decrease in luminescence is proportional to mIDH1 activity. IC50 values are determined by interpolation from plots of relative luminescence versus inhibitor concentration.

[1] = system: LN229 R132H cells overexpressing mutated isocitrate dehydrogenase (mIDH); test: Mutant IDH1 cellular assay (2-HG levels in medium); format: cell-based; details: 2-HG in medium of LN229 R132H cells, 24 hours incubation, fluorescence readout
Description: Mutant IDH1 Cellular Assay
Levels of (2R)-2-hydroxyglutarate (2HG) were measured in medium of a cell line with overexpression of mutated isocitrate dehydrogenase (mIDH) protein. mIDH catalyzes the NADPH-dependent reduction of alpha-ketoglutarate to 2-HG. Cells (LN229 R132H, Mohrenz et al., Apoptosis (2013) 18:1416-1425) were grown in DMEM containing 10% FCS. They were harvested by trypsin and seeded into 96-well plates. Cells were incubated overnight at 37° C. in 5% CO2. The next day test compounds were added to each cell well. The final concentration of DMSO was 0.1% and DMSO controls were included. The plates were then placed in an incubator for 24 hours.
2-HG was measured according to Balss et al. (Acta Neuropathol (2012) 124: 883-891). Briefly, HClO4 was added to each well and the plates were centrifuged. Aliquots are removed and incubated with hydroxyglutarate dehydrogenase (HGDH), diaphorase, NAD+, and resazurin. The conversion of resazurin to resorufin was detected by fluorescence spectroscopy at Ex 540 nm Em 600 nm. The increase in fluorescence is proportional to 2-HG production. IC50 values are determined by interpolation from plots of relative fluorescence vs inhibitor concentration.

Chain of IDH1 R132H enzyme (O75874 whole entry R132H): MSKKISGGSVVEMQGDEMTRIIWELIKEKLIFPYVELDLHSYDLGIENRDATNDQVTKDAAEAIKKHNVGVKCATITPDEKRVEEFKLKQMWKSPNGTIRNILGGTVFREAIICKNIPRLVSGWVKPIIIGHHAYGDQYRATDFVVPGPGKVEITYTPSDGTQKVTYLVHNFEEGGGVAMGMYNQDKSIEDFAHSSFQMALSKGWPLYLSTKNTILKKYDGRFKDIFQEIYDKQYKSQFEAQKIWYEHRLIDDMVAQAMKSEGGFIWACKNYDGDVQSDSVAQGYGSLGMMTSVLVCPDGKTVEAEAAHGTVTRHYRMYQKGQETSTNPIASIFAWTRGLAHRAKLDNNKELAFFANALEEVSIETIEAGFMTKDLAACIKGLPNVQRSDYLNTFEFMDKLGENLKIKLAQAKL

SMILES: COC(=O)CN(C)C(=O)c1ccc2nc(Nc3ccc(OC(F)(F)F)cc3)n([C@H]3C[C@@H](C)CC(C)(C)C3)c2c1 (racemic) [Example 2-9, (±) methyl N-methyl-N-[(2-{[4-(trifluoromethoxy)phenyl]amino}-1-[(cis)-3,3,5-trimethylcyclohexyl]-1H-benzimidazol-6-yl)carbonyl]glycinate]
- IC50 (IDH1 R132H enzyme): 250 nM
- IC50 ([1]; Homo sapiens, LN-229, 24 h): 9000 nM

SMILES: C[C@@H]1C[C@H](n2c(Nc3ccc(OC(F)(F)F)cc3)nc3ccc(C(=O)N(C)C)cc32)CC(C)(C)C1 (racemic) [Example 2-20, (±) N,N-dimethyl-2-{[4-(trifluoromethoxy)phenyl]amino}-1-[(cis)-3,3,5-trimethylcyclohexyl]-1H-benzimidazole-6-carboxamide]
- IC50 (IDH1 R132H enzyme): 100 nM
- IC50 ([1]; Homo sapiens, LN-229, 24 h): 2000 nM

SMILES: C[C@@H]1C[C@H](n2c(Nc3ccc(OC(F)(F)F)cc3)nc3ccc(C(=O)N(C)C)cc32)CC(C)(C)C1 (single isomer, unassigned; enantiomer a) [Example 2-20-1, (±) N,N-dimethyl-2-{[4-(trifluoromethoxy)phenyl]amino}-1-[(cis)-3,3,5-trimethylcyclohexyl]-1H-benzimidazole-6-carboxamide, enantiomer A]
- IC50 (IDH1 R132H enzyme): 80 nM
- IC50 [1]: 1800 nM

SMILES: C[C@@H]1C[C@H](n2c(Nc3ccc(OC(F)(F)F)cc3)nc3ccc(C(=O)N4CCOCC4)cc32)CC(C)(C)C1 (single isomer, unassigned; enantiomer b) [Example 2-16-2, morpholin-4-yl(2-{[4-(trifluoromethoxy)phenyl]amino}-1-[(cis)-3,3,5-trimeethylcyclohexyl]-1H-benzimidazol-6-yl)methanone, enantiomer B]
- IC50 ([1]; Homo sapiens, LN-229, 24 h): 400 nM

SMILES: C[C@@H]1C[C@H](n2c(Nc3ccc(OC(F)(F)F)cc3)nc3ccc(C(=O)N(C)C)cc32)CC(C)(C)C1 (single isomer, unassigned; enantiomer b) [Example 2-20-2, (±) N,N-dimethyl-2-{[4-(trifluoromethoxy)phenyl]amino}-1-[(cis)-3,3,5-trimethylcyclohexyl]-1H-benzimidazole-6-carboxamide, enantiomer B]
- IC50 (IDH1 R132H enzyme): 200 nM
- IC50 [1]: 4300 nM
